This note sets out measurements from patent US20260098053A1, “COMPOSITIONS AND METHODS FOR TREATING CNS DISORDERS” (SAGE THERAPEUTICS, INC., priority 2019, published 2026).

SMILES strings stand for the structures. A value given as a limit tells only on which side of the number the result lay.

The target in one assay is [35S]-TBPS binding, rat brain cortical membranes. Kind of assay: Steroid inhibition of [35S]-TBPS binding. As to conditions: Table 4, 3 nM [35S]-TBPS, in the presence of 5 mM GABA, read-out: TBPS IC50. As for the experimental part:
[35S]-t-Butylbicyclophosphorothionate (TBPS) binding assays using rat brain cortical membranes in the presence of 5 mM GABA has been described (Gee et al, J. Pharmacol. Exp. Ther. 1987, 241, 346-353; Hawkinson et al, Mol. Pharmacol. 1994, 46, 977-985; Lewin, A. H et al., Mol. Pharmacol. 1989, 35, 189-194).
Briefly, cortices are rapidly removed following decapitation of carbon dioxide-anesthetized Sprague-Dawley rats (200-250 g). The cortices are homogenized in 10 volumes of ice-cold 0.32 M sucrose using a glass/teflon homogenizer and centrifuged at 1500×g for 10 min at 4° C. The resultant supernatants are centrifuged at 10,000×g for 20 min at 4° C. to obtain the P2 pellets. The P2 pellets are resuspended in 200 mM NaCl/50 mM Na—K phosphate pH 7.4 buffer and centrifuged at 10,000×g for 10 min at 4° C. This washing procedure is repeated twice and the pellets are resuspended in 10 volumes of buffer. Aliquots ([…]) of the membrane suspensions are incubated with 3 nM [^35S]-TBPS and […] aliquots of test drug dissolved in dimethyl sulfoxide (DMSO) (final 0.5%) in the presence of 5 mM GABA. The incubation is brought to a final volume of 1.0 mL with buffer. Nonspecific binding is determined in the presence of […] and ranged from 15 to 25%. Following a 90 min incubation at room temp, the assays are terminated by filtration through glass fiber filters (Schleicher and Schuell No. 32) using a cell harvester (Brandel) and rinsed three times with ice-cold buffer. Filter bound radioactivity is measured by liquid scintillation spectrometry. Non-linear curve fitting of the overall data for each drug averaged for each concentration is done using Prism (GraphPad). […] The concentration of test compound producing 50% inhibition (IC50) of specific binding and the maximal extent of inhibition (Imax) are determined for the individual experiments with the same model used for the overall data and then the means±SEM.s of the individual experiments are calculated.
Various compounds are or can be screened to determine their potential as modulators of [^35S]-TBPS binding in vitro. These assays are or can be performed in accordance with the above
As for `C[C@]1(O)CC[C@H]2CC[C@@H]3[C@H](CC[C@]4(C)[C@@H](C(=O)Cn5cc(C#N)cn5)CCC[C@@H]34)[C@@]2(C)CC1` [Example 52, 1-(2-((1S,4aS,4bR,6aR,9S,11aS,11bS,13aS)-9-hydroxy-9,11a,13a-trimethyloctadecahydro-1H-cyclohepta[a]phenanthren-1-yl)-2-oxoethyl)-1H-pyrazole-4-carbonitrile], the IC50 lay in the range of 100 to 1000 nM. As for `COC[C@]1(O)CC[C@@H]2CC[C@@H]3[C@H](CC[C@]4(C)[C@@H](C(=O)Cn5cc(C#N)cn5)CCC[C@@H]34)[C@@]2(C)CC1` [Example 56, 1-(2-((1S,4aS,4bR,6aS,9S,11aS,11bS,13aS)-9-hydroxy-9-(methoxymethyl)-11a,13a-dimethyloctadecahydro-1H-cyclohepta[a]phenanthren-1-yl)-2-oxoethyl)-1H-pyrazole-4-carbonitrile], the IC50 is 100 to 1000 nM.

For `Cc1nnnn1CC(=O)[C@H]1CCCC[C@H]2[C@@H]3CC[C@@H]4C[C@](C)(O)CCC[C@]4(C)[C@H]3CC[C@]12C` [Example 63, 1-((1S,5aS,5bR,7aR,9R,12aS,12bS,14aS)-9-hydroxy-9,12a,14a-trimethylicosahydrodicyclohepta[a,f]naphthalen-1-yl)-2-(5-methyl-1H-tetrazol-1-yl)ethanone], the IC50 is 100 to 1000 nM. Same read-out and setting: to `CC[C@]12CCCC(C)(O)C[C@H]1CC[C@H]1[C@@H]3CC[C@H](C(=O)Cn4cc(C#N)cn4)[C@@]3(C)CC[C@@H]12` (stereo in doubt) [Example 20, 1-(2-((1S,3aS,3bS,5aR,7S,10aS,10bS,12aS)-10a-ethyl-7-hydroxy-7,12a-dimethyloctadecahydrocyclohepta[a]cyclopenta[f]naphthalen-1-yl)-2-oxoethyl)-1H-pyrazole-4-carbonitrile] belongs below 100 nM; to `CC[C@]12CC[C@H]3[C@@H](CC[C@@H]4CC[C@](C)(O)CC[C@@H]43)[C@@H]1CC[C@@H]2C(=O)Cn1cc(C#N)cn1` [Example 33], 100 to 1000 nM. Same read-out and setting: to `CC[C@]12CC[C@H]3[C@@H](CC[C@@H]4CC[C@@](O)(COC)CC[C@@H]43)[C@@H]1CC[C@@H]2C(=O)Cn1cc(C#N)cn1` [Example 31, 1-(2-((1S,3aS,3bR,5aR,8S,10aS,10bR,12aS)-12a-ethyl-8-hydroxy-8-(methoxymethyl)octadecahydrocyclohepta[a]cyclopenta[f]naphthalen-1-yl)-2-oxoethyl)-1H-pyrazole-4-carbonitrile] belongs 100 to 1000 nM; to `CC[C@@]1(O)CCC[C@@]2(C)[C@@H](CC[C@@H]3[C@@H]2CC[C@]2(C)[C@@H](C(=O)Cn4cc(C#N)cn4)CCC[C@@H]32)C1` [Example 42, 1-(2-((1S,4aS,4bR,6aS,8R,11aS,11bS,13aS)-8-ethyl-8-hydroxy-11a,13a-dimethyloctadecahydro-1H-cyclohepta[a]phenanthren-1-yl)-2-oxoethyl)-1H-pyrazole-4-carbonitrile], 100 to 1000 nM.

As to `CC[C@]12CC[C@@](C)(O)CC[C@H]1CC[C@H]1[C@@H]3CC[C@H](C(C)=O)[C@@]3(C)CC[C@@H]12` [Example 25, 1-((1S,3aS,3bS,5aR,8S,10aS,10bS,12aS)-10a-ethyl-8-hydroxy-8,12a-dimethyloctadecahydrocyclohepta[a]cyclopenta[f]naphthalen-1-yl)ethanone], the IC50 lay within 100 to 1000 nM. Regarding `C[C@]1(O)CC[C@H]2CC[C@@H]3[C@H](CC[C@]4(C)[C@@H](C(=O)Cn5cc(C#N)cn5)CCC[C@@H]34)[C@H]2CC1` [Example 4, 1-(2-((1S,4aS,4bR,6aR,9S,11aS,11bR,13aS)-9-hydroxy-9,13a-dimethyloctadecahydro-1H-cyclohepta[a]phenanthren-1-yl)-2-oxoethyl)-1H-pyrazole-4-carbonitrile], the IC50 fell in the range of 100 to 1000 nM.

Consider `CC[C@@]1(O)CCC[C@H]2[C@H](CC[C@@H]3[C@@H]2CC[C@]2(C)[C@@H](C(=O)Cn4cc(C#N)cn4)CCC[C@@H]32)C1` [Example 14, 1-(2-((1S,4aS,4bR,6aR,8R,11aS,11bR,13aS)-8-ethyl-8-hydroxy-13a-methyloctadecahydro-1H-cyclohepta[a]phenanthren-1-yl)-2-oxoethyl)-1H-pyrazole-4-carbonitrile], for which the IC50 fell in the range of 100 to 1000 nM. Turning to `Cc1nnnn1CC(=O)[C@H]1CCC[C@H]2[C@@H]3CC[C@@H]4C[C@](C)(O)CCC[C@@H]4[C@H]3CC[C@]12C` [Example 12, 1-((1S,4aS,4bR,6aR,8R,11aS,11bR,13aS)-8-hydroxy-8,13a-dimethyloctadecahydro-1H-cyclohepta[a]phenanthren-1-yl)-2-(5-methyl-1H-tetrazol-1-yl)ethan-1-one], the IC50 is below 100 nM. Same read-out and setting: as for `C[C@@]1(O)CCC[C@@]2(C)[C@@H](CC[C@@H]3[C@@H]2CC[C@]2(C)[C@@H](C(=O)CCn4cc(C#N)cn4)CCC[C@@H]32)C1` [Example 41, 1-(3-((1S,4aS,4bR,6aS,8R,11aS,11bS,13aS)-8-hydroxy-8,11a,13a-trimethyloctadecahydro-1H-cyclohepta[a]phenanthren-1-yl)-3-oxopropyl)-1H-pyrazole-4-carbonitrile], the figure is below 100 nM; as for `CC(=O)[C@H]1CCC[C@H]2[C@@H]3CC[C@@H]4CC[C@](C)(O)CC[C@]4(C)[C@H]3CC[C@]12C` [Example 53, 1-((1S,4aS,4bR,6aR,9S,11aS,11bS,13aS)-9-hydroxy-9,11a,13a-trimethyloctadecahydro-1H-cyclohepta[a]phenanthren-1-yl)ethanone], above 1000 nM. `CC[C@]12CC[C@H]3[C@@H](CC=C4CC[C@](C)(O)CC[C@@]43C)[C@@H]1CC[C@@H]2C(C)=O` [Example 34, 1-((1S,3aS,3bS,8S,10aR,10bS,12aS)-12a-ethyl-8-hydroxy-8,10a-dimethyl-1,2,3,3a,3b,4,6,7,8,9,10,10a,10b,11,12,12a-hexadecahydrocyclohepta[a]cyclopenta[f]naphthalen-1-yl)ethanone]: the IC50 is below 100 nM.

`CC[C@]12CC[C@H]3[C@@H](CC=C4CC[C@](C)(O)CC[C@@]43C)[C@@H]1CC[C@@H]2C(=O)Cn1cc(C#N)cn1` [Example 35, 1-(2-((1S,3aS,3bS,8S,10aR,10bS,12aS)-12a-ethyl-8-hydroxy-8,10a-dimethyl-1,2,3,3a,3b,4,6,7,8,9,10,10a,10b,11,12,12a-hexadecahydrocyclohepta[a]cyclopenta[f]naphthalen-1-yl)-2-oxoethyl)-1H-pyrazole-4-carbonitrile]: the IC50 was below 100 nM.

Staying with this assay, now noted: Table 5, 3 nM [35S]-TBPS, in the presence of 5 mM GABA, read-out: TBPS IC50.
As for `CC(=O)[C@@H]1CC[C@H]2[C@@H]3CC[C@@H]4C[C@](C)(O)CC[C@@H]4[C@H]3CC[C@@H]21` [Example 67, 1-((3R,5R,8R,9R,10S,13S,14S,17R)-3-hydroxy-3-methylhexadecahydro-1H-cyclopenta[a]phenanthren-17-yl)ethan-1-one], the IC50 is above 1000 nM. For `CC(=O)[C@H]1CCC[C@H]2[C@@H]3CC[C@@H]4C[C@](C)(O)CC[C@@H]4[C@H]3CC[C@@H]21` [Example 77, 1-((1S,4aS,4bR,6aR,8R,10aS,10bR,12aS)-8-hydroxy-8-methyloctadecahydrochrysen-1-yl)-ethanone], the IC50 is below 100 nM. As for `CC(=O)[C@H]1CC[C@H]2[C@@H]3CC[C@H]4C[C@](C)(O)CC[C@@H]4[C@H]3CC[C@@H]21` [Example 72, 1-((3R,5S,8R,9R,10S,13S,14S,17S)-3-hydroxy-3-methylhexadecahydro-1H-cyclopenta[a]phenanthren-17-yl)ethanone], the IC50 was above 1000 nM. As for `C[C@@]1(O)CC[C@H]2[C@H](CC[C@@H]3[C@@H]2CC[C@H]2[C@H]3CCC[C@@H]2C(=O)Cn2cc(C#N)cn2)C1` [Example 78, 1-(2-((1S,4aS,4bR,6aR,8R,10aS,10bR,12aS)-8-hydroxy-8-methyloctadecahydrochrysen-1-yl)-2-oxoethyl)-1H-pyrazole-4-carbonitrile], the IC50 is below 100 nM.

The same assay, now with this note: Table 6, 3 nM [35S]-TBPS, in the presence of 5 mM GABA, read-out: IC50.
`C[C@@]1(O)CC[C@@]2(C3CC3)[C@H](CC[C@H]3[C@@H]4CCC[C@@H](C(=O)Cn5cc(C#N)cn5)[C@@]4(C)CC[C@@H]32)C1` [Example 86, 1-(2-((1R,4aS,4bS,6aR,8R,10aR,10bS,12aS)-10a-cyclopropyl-8-hydroxy-8,12a-dimethyloctadecahydrochrysen-1-yl)-2-oxoethyl)-1H-pyrazole-4-carbonitrile]: the IC50 is above 1000 nM.
